Marks after values point to notes of the source that are not given here.
How the values were obtained:
[1] = test system: HIV; experiment: HIV-infected individuals: comparative studies with TPI; design: species or system human; conditions: in vivo
Procedure: In separate studies, a total of 21 HIV-infected individuals were studied, including full-blown syndrome, prodromal, and pre-AIDS afflicted individuals who were treated with Thympentin. Thympentin and TPI are thymic gland peptide extracts previously disclosed in the scientific literature.

[2] = Pelvic inflammatory diseases; assay type: in vivo, human
Procedure: Ninety-six female patients (96) were entered into a trial having a variety of different disorders, i.e., pelvic inflammatory diseases, cervicitis, vaginitis and various tubo-ovarian and adnexal abscesses. Forty-six patients (46) comprised the L-Glu-L-Trp treatment group, and 50 patients comprised a conventional treatment control group. L-Glu-L-Trp was administered daily im at a dose of 100 μg, or 1 μg/kg intranasally, on each of 5 consecutive days. Alternatively, 50 μg of L-Glu-L-Trp was injected intralymphatically on each of 5 consecutive days in conjunction with conventional therapy. […] Normalization of immune parameters was correlated with the observed clinical improvements.
Patients entered into Group 1 (aged 19-50) were separable into clinical subgroups as follows: Subgroup 1A, consisted of 18 patients having […] (body temperature 38-39° C.), and suppurative vaginal discharge after infected abortions performed outside hospitals (average age 24.4±4.2 years); Subgroup 1B, consisted of 16 patients with abdominal pains resulting from chronic nonspecific subfebrile (<38° C.) inflammatory disease of the fallopian tubes (average age 32.2±3.9 years; range of abortions in the patient population 2-8); and, Subgroup 1C consisted of 12 patients with inflammation of the fallopian tubes, (38% resulting from placement of an IUD in the uterus more than 4 years previously). […] Group 2 (control) was constituted of 50 patients (aged 18-44) presenting with analogous symptoms and diseases and the patients in this group were treated with traditional antibiotic therapy.
In all cases L-Glu-L-Trp was delivered im at a dose of 100 μg in 1 ml volume daily on each of five days.
Treatment A: Administered to patients in Group 1A: The course of L-Glu-L-Trp therapy was administered, remnants of fetal tissue were surgically removed, and an additional course of L-Glu-L-Trp therapy was administered.
Treatment B: Administered to patients in Group 1B: L-Glu-L-Trp therapy was administered immediately upon admission into the protocol.
Treatment C: Administered to patients in Group 1C: Infected uterine tissues were surgically removed, abdominal drainage was established, and L-Glu-L-Trp therapy was administered starting 2 days post-operatively.
Patients were evaluated by monitoring the following parameters before, during, and 5-7 days after therapy: i) clinical status of the patient (i.e., body temperature, abdominal pain, and physical examinations) and, ii) laboratory data (i.e., urinalysis, blood chemistry, and blood immunology). The following clinical chemistry values of the patients in Groups 1A, 1B, and 1C were all within the normal range before and after treatment: AST, ALT, creatinine, urea, glucose, protein, chloride, potassium, and sodium. […] Treatment with L-Glu-L-Trp reduced the latter serum markers, i.e., alkaline phosphatase fell to 62.71±5.67 ED/mL and bilirubin to 0.50±0.03 mg %.

[3] = Occupational radiation exposure to 100-200 R; design: species or system human; conditions: in vivo
From the text: A total of 263 patients and 18 control patients sustained exposure to 100-200 Roentgens of occupational radiation over a period of several weeks.

[4] = test system: bone marrow cells; experiment: Bone marrow and peripheral blood cells in 5-FU immunosuppressed mice; assay type: in vivo, CBA mice
Procedure: The effects of L-Glu-L-Trp on bone marrow hematopoietic activity was investigated in 5-fluorouracil (5-FU) immunosuppressed CBA mice. Mice were treated with a dose schedule of 5-FU determined empirically to be sufficient to decrease the absolute number of bone marrow cells and peripheral blood leukocytes by about 50% on day 10-14. Treatment with L-Glu-L-Trp was initiated on day 10, and 1 μg/kg was administered ip daily on that day and each of the following 4 days. Bone marrow and peripheral blood cell populations were quantified on day 15.

[5] = pooled Groups 1A-1C, After L-Glu-L-Trp Therapy
[6] = bone marrow, 5-FU + 1 μg/kg ip daily 5 days, day 15
[7] = peripheral blood, 5-FU + 1 μg/kg ip daily 5 days, day 15

In the case of L-Glu-L-Trp, the Comparative effectiveness [1] is reported as “more effective than TPI in restoring normal immunologic indices, T-cell functional activity, and T4/T8 ratios”, the Alkaline phosphatase ([2]; after treatment) is reported as 62.71±5.67 ED/mL and the “B-lymphocytes, % of normal” value ([2]; after treatment) is reported as ~55%. The Bilirubin ([2]; after treatment) was 0.50±0.03 mg %, the “Lymphocytes, % of normal” value ([2]; after treatment) was “about 81%” and the “T-lymphocytes, % of normal” value ([2]; after treatment) was “about 75%”. The Clinical outcome ([2]; in vivo) was “alleviated pain, reduced fever, and decreased the duration of the medical treatment”, the “B-Lymphocytes: % of Normal Value” [2, 5] was “(55%)” and the “B-Lymphocytes: % of PBL” value [2, 5] was 11.09 ± 0.87 % of PBL. For the same substance, the “B-Lymphocytes: No.” value [2, 5] was 0.27 ± 0.03* 10^9/L, the “Blastogenic Response: % Lym blast w/Con A” value [2, 5] was 68.70 ± 5.32% and the “Blastogenic Response: % Lym blast w/PHA” value [2, 5] was 37.22 ± 2.81 %. The IgA [2, 5] was 2.61 ± 0.33 g/L, the “IgA % Normal Value” [2, 5] was “(137%)” and the IgG [2, 5] was 13.73 ± 0.51 g/L. For the same substance, the “IgG % Normal Value” [2, 5] was “(126%)”, the IgM [2, 5] was 2.64 ± 0.36 g/L and the “IgM % Normal Value” [2, 5] was “(176%)”. For the same substance, the “Lymphocytes: % Normal Value” [2, 5] was “(81%)”, the “Lymphocytes: % of PBL” value [2, 5] was 36.61 ± 1.32 % of PBL and the “Lymphocytes: No.” value [2, 5] was 2.26 ± 0.12* 10^9/L. For the same substance, the “Phagocytes: % PBL” value [2, 5] was 74.78 ± 2.35 % PBL, the “T-Lymphocytes: % of Lym” value [2, 5] was 71.57 ± 1.76 % of Lym and the “T-Lymphocytes: % of Normal Value” [2, 5] was “(75%)”. For the same substance, the “T-Lymphocytes: No.” value [2, 5] was 1.67 ± 0.09* 10^9/L, the Outcome [3] was “restoration of normal, or near normal, peripheral blood immune indices in all patients” and the Bone marrow cells ([4]; 1 μg/kg ip, 5 days) was “an increase in the numbers of myelocytes/neutrophils, stab and segmented neutrophils, and megakaryocytes”. The “Eosinophils (% of Normal Control Value)” value [4, 6] was “(64%)”, the “Eosinophils: %” value [4, 6] was 1.1% and the “Eosinophils: Total Cells” value [4, 6] was 15600 mg⁻¹. The “Erythroblasts (% of Normal Control Value)” value [4, 6] was “(64%)”, the “Erythroblasts: %” value [4, 6] was 2.1% and the “Erythroblasts: Total Cells” value [4, 6] was 29600 mg⁻¹. The “Erythroid cells (% of Normal Control Value)” value [4, 6] was “(59%)”, the “Erythroid cells: %” value [4, 6] was 9.7% and the “Lymphocytes (% of Normal Control Value)” value [4, 6] was “(88%)”. The “Lymphocytes: %” value [4, 6] was 43.9%, the “Lymphocytes: Total Cells” value [4, 6] was 618900 mg⁻¹ and the “Megakaryocytes (% of Normal Control Value)” value [4, 6] was “(43%)”. For the same substance, the “Megakaryocytes: %” value [4, 6] was 0.3%, the “Megakaryocytes: Total Cells” value [4, 6] was 4200 mg⁻¹ and the “Monocytes (% of Normal Control Value)” value [4, 6] was “(60%)”. The “Monocytes: %” value [4, 6] was 2.5%, the “Monocytes: Total Cells” value [4, 6] was 35300 mg⁻¹ and the “Myeloblasts (% of Normal Control Value)” value [4, 6] was “(74%)”. For the same substance, the “Myeloblasts: %” value [4, 6] was 5.0%, the “Myeloblasts: Total Cells” value [4, 6] was 70600 mg⁻¹ and the “Myelocytes + Neutrophil Metamyelocytes (% of Normal Control Value)” value [4, 6] was “(40%)”. The “Myelocytes + Neutrophil Metamyelocytes: %” value [4, 6] was 4.0%, the “Myelocytes + Neutrophil Metamyelocytes: Total Cells” value [4, 6] was 56400 mg⁻¹ and the “Myelokaryocytes (% of Normal Control Value)” value [4, 6] was “(58%)”. The “Myelokaryocytes: Total Cells” value [4, 6] was 1.41e+06 mg⁻¹, the “Non-differentiated blast cells (% of Normal Control Value)” value [4, 6] was “(64%)” and the “Non-differentiated blast cells: %” value [4, 6] was 2.2%. The “Non-differentiated blast cells: Total Cells” value [4, 6] was 31000 mg⁻¹, the “Promyeloblasts (% of Normal Control Value)” value [4, 6] was “(74%)” and the “Promyeloblasts: %” value [4, 6] was 3.6%. The “Promyeloblasts: Total Cells” value [4, 6] was 50800 mg⁻¹, the “Reticular cells (% of Normal Control Value)” value [4, 6] was “(50%)” and the “Reticular cells: %” value [4, 6] was 0.7%. For the same substance, the “Reticular cells: Total Cells” value [4, 6] was 9800 mg⁻¹, the “Stab + Seg. neutrophils (% of Normal Control Value)” value [4, 6] was “(34%)” and the “Stab + Seg. neutrophils: %” value [4, 6] was 24.9%. For the same substance, the “Stab + Seg. neutrophils: Total Cells” value [4, 6] was 351000 mg⁻¹, the “Blast Cells: %” value [4, 7] was 0.3% and the “Blast Cells: Total Cells” value [4, 7] was 1e+07 L⁻¹. For the same substance, the “Eosinophils (% of Normal Control Value)” value [4, 7] was “(100%)”, the “Eosinophils: %” value [4, 7] was 0.3% and the “Eosinophils: Total Cells” value [4, 7] was 1e+07 L⁻¹. For the same substance, the “Lymphocytes (% of Normal Control Value)” value [4, 7] was “(93%)”, the “Lymphocytes: %” value [4, 7] was 41.9% and the “Lymphocytes: Total Cells” value [4, 7] was 2.52e+09 L⁻¹. For the same substance, the “Monocytes (% of Normal Control Value)” value [4, 7] was “(18%)”, the “Monocytes: %” value [4, 7] was 2.5% and the “Monocytes: Total Cells” value [4, 7] was 2e+07 L⁻¹. For the same substance, the “Peripheral Blood Leukocytes (% of Normal Control Value)” value [4, 7] was “(52%)”, the “Peripheral Blood Leukocytes: Total Cells” value [4, 7] was 2.98e+09 L⁻¹ and the “Segmented Neutrophils (% of Normal Control Value)” value [4, 7] was “(22%)”. The “Segmented Neutrophils: %” value [4, 7] was 14.6%, the “Segmented Neutrophils: Total Cells” value [4, 7] was 4.3e+08 L⁻¹ and the “Stab. Neutrophils (% of Normal Control Value)” value [4, 7] was “(26%)”. For the same substance, the “Stab. Neutrophils: %” value [4, 7] was 7.9% and the “Stab. Neutrophils: Total Cells” value [4, 7] was 2.4e+08 L⁻¹.

Reference: patent publication US6368788B1 (priority 1987, dated 2002)
